Measurements taken from the supplement of paper PMC10307832.

Key:
Assay in all cases: relative viability (nuclei count vs DMSO), 5 days (fraction); higher = more cells survive
[1] = compound: Cn1cnc2c(F)c(Nc3ccc(Br)cc3Cl)c(C(=O)NOCCO)cc21 [Selumetinib] + COc1cc2c(Oc3ccc(NC(=O)C4(C(=O)Nc5ccc(F)cc5)CC4)cc3F)ccnc2cc1OCCCN1CCOCC1 [Foretinib] (partner 0.25 µM)
Summary of the method: (§1)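 Each reported value is a median over duplicate plates. It expresses relative viability: treated-well nuclei count divided by vehicle-well nuclei count. Lung cancer cell lines in 1536-well plates were dosed by pin tool a day after seeding, alone with one drug or with a fixed anchor-drug dose plus five library-drug doses (not always all listed) in √10 steps, and nuclei were counted after 5 days.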

[2] = compound: CC1(C)CCC(CN2CCN(c3ccc(C(=O)NS(=O)(=O)c4ccc(NCC5CCOCC5)c([N+](=O)[O-])c4)c(Oc4cnc5[nH]ccc5c4)c3)CC2)=C(c2ccc(Cl)cc2)C1 [Venetoclax] + Cc1nc(Nc2ncc(C(=O)Nc3c(C)cccc3Cl)s2)cc(N2CCN(CCO)CC2)n1 [Dasatinib] (partner 0.075 µM)
Summary of the method: as §1

[3] = compound: CC1(C)CCC(CN2CCN(c3ccc(C(=O)NS(=O)(=O)c4ccc(NCC5CCOCC5)c([N+](=O)[O-])c4)c(Oc4cnc5[nH]ccc5c4)c3)CC2)=C(c2ccc(Cl)cc2)C1 [Venetoclax] + Cc1nc(NC(=O)N2CCC[C@H]2C(N)=O)sc1-c1ccnc(C(C)(C)C(F)(F)F)c1 [Alpelisib] (partner 2 µM)
Summary of the method: as §1

[4] = compound: Cn1cnc2c(F)c(Nc3ccc(Br)cc3Cl)c(C(=O)NOCCO)cc21 [Selumetinib] + C[C@@H](Oc1cc(-c2cnn(C3CCNCC3)c2)cnc1N)c1c(Cl)ccc(F)c1Cl [Crizotinib] (partner 1 µM)
Summary of the method: as §1

Cell Line	relative viability ([1]; first compound 0.02 µM)	relative viability ([1]; first compound 0.06325 µM)	relative viability ([1]; first compound 0.2 µM)	relative viability ([1]; first compound 0.6325 µM)	relative viability ([2]; first compound 0.01 µM)	relative viability ([2]; first compound 0.03162 µM)	relative viability ([2]; first compound 0.1 µM)	relative viability ([2]; first compound 0.3162 µM)	relative viability ([2]; first compound 1 µM)	relative viability ([3]; first compound 0.01 µM)	relative viability ([3]; first compound 0.03162 µM)	relative viability ([3]; first compound 0.1 µM)	relative viability ([3]; first compound 0.3162 µM)	relative viability ([3]; first compound 1 µM)	relative viability ([4]; first compound 0.02 µM)	relative viability ([4]; first compound 0.06325 µM)	relative viability ([4]; first compound 0.2 µM)	relative viability ([4]; first compound 0.6325 µM)
201T	0.977	0.978	1.05	0.874	0.545	0.551	0.614	0.501	0.488	0.96	1.01	1.07	0.972	1.03	1.01	0.99	0.93	0.902
A549	0.779	0.581	0.546	0.32						0.755	0.706	0.868	0.85	0.716	0.715	0.656	0.495	0.402
A-427	1.17	1.11	0.954	0.756	0.667	0.726	0.667	0.687	0.639	1.02	1.09	1.13	1.07	1.17	0.88	0.768	0.73	0.701
ABC-1	0.906	0.882	0.951	0.767	0.665	0.655	0.445	0.658	0.604	0.933	0.996	0.853	0.967	1.01	1.57	1.03	1.11	1.12
BEN	0.692	0.714	0.667	0.546	0.323	0.362	0.374	0.34	0.303	0.976	1.07	0.756	1.06	1.01	0.773	0.873	0.834	0.776
CAL-12T	1.05	1.04	1.14	0.839	0.286	0.476	0.381	0.398	0.314	1.25	1.08	1.01	1.43	1.25	0.621	0.573	0.704	0.597
COR-L23	0.999	1.01	0.933	0.934	0.414	0.505	0.484	0.495	0.504	0.7	0.753	0.745	0.766	0.741	0.798	0.653	0.556	0.622
COR-L 105	0.978	1.1	0.846	0.534	0.42	0.364	0.296	0.462	0.377	0.983	0.959	1.13	0.91	1.02	0.855	0.689	0.714	0.635
Calu-6	0.817	0.702	0.515	0.383						0.946	0.917	0.98	1.02	0.998	0.804	0.603	0.51	0.343
ChaGo-K-1	0.833	0.924	0.906	0.769	0.722	0.601	0.59	0.598	0.547						1.12	1.18	1.11	1.17
EBC-1	0.0932	0.0928	0.114	0.109						0.815	0.869	0.806	0.831	0.875	0.179	0.16	0.175	0.147
EKVX	0.724	0.675	0.517	0.568	0.576	0.641	0.437	0.567	0.47	0.82	1	0.871	0.982	0.786	0.909	0.889	0.614	0.639
EMC-BAC-2	0.882	0.972	0.85	0.875	0.331	0.343	0.292	0.327	0.31	0.707	0.744	0.747	0.73	0.687	0.754	0.719	0.778	0.834
EPLC-272H	0.593	0.467	0.367	0.333	0.399	0.379	0.352	0.36	0.346		0.95	0.986	1.11	0.977	0.877	0.846	0.707	0.731
H3255	0.867	0.921	0.457	0.739	0.367	0.399	0.373	0.446	0.404	0.702	0.671	0.686	0.891	0.686	0.879	0.96	0.88	0.802
HARA	0.905	0.726	0.71	0.592	0.422	0.258	0.228	0.249	0.216	0.728	0.822	0.787	0.891	0.787	1.02	1.02	0.876	0.602
HCC-15	0.777	0.637	0.439	0.293	0.607	0.627	0.587	0.645	0.549	0.872	0.91	0.723	0.857	0.735	0.669	0.498	0.395	0.256
HCC-44										0.795	0.745	0.64	0.754	0.705	0.883	0.753	0.876	0.876

Cell Line	relative viability ([1]; first compound 0.02 µM)	relative viability ([1]; first compound 0.06325 µM)	relative viability ([1]; first compound 0.2 µM)	relative viability ([1]; first compound 0.6325 µM)	relative viability ([2]; first compound 0.01 µM)	relative viability ([2]; first compound 0.03162 µM)	relative viability ([2]; first compound 0.1 µM)	relative viability ([2]; first compound 0.3162 µM)	relative viability ([2]; first compound 1 µM)	relative viability ([3]; first compound 0.01 µM)	relative viability ([3]; first compound 0.03162 µM)	relative viability ([3]; first compound 0.1 µM)	relative viability ([3]; first compound 0.3162 µM)	relative viability ([3]; first compound 1 µM)	relative viability ([4]; first compound 0.02 µM)	relative viability ([4]; first compound 0.06325 µM)	relative viability ([4]; first compound 0.2 µM)	relative viability ([4]; first compound 0.6325 µM)
HCC-78	0.516	0.435	0.401	0.449	0.442	0.441	0.409	0.323	0.368	0.371	0.303	0.313	0.326	0.361	0.276	0.306	0.281	0.299
HCC-366	0.866	0.865	0.755	0.645	0.618	0.592	0.523	0.56	0.54	0.5	0.425	0.448	0.501	0.317	0.492	0.462	0.308	0.238
HCC-827	0.942	0.983	0.989	0.86	0.336	0.368	0.34	0.33	0.334	0.954	0.977	1	0.976	0.994	0.945	0.913	0.869	0.83
HOP-62	1.06	1.02	0.807	0.504	0.557	0.582	0.616	0.709	0.625	0.924	1.21	1.08	1.07	0.9	0.841	0.877	0.909	0.515
IA-LM	0.949	0.837	0.576	0.403						0.614	0.726	0.892	0.61	0.604	0.662	0.54	0.314	0.335
LC-2-ad	0.828	0.722	0.643	0.533	0.575	0.612	0.522	0.671	0.544	0.839	0.906	1.02	0.871	0.905	0.397	0.446	0.431	0.405
LCLC-97TM1	0.898	0.818	0.585	0.525	0.856	0.888	0.764	0.733	0.802		0.317	0.248	0.241	0.249	0.527	0.496	0.467	0.504
NCI-H522					0.938	0.951	0.805	0.8	0.848									
NCI-H1299	1.23	1.08	1.09	0.935						1.02	1.03	1.06	1.04	1.03	1.06	0.961	0.939	0.84
NCI-H1395	0.959	0.978	0.928	0.94	0.449	0.406	0.392	0.442	0.409	0.989	0.943	0.926	0.983	0.961				
NCI-H1623	0.729	0.679	0.614	0.632	0.565	0.595	0.534	0.515	0.508									
NCI-H1650	0.992	0.888	0.842	0.928	0.362	0.352	0.29	0.324	0.305						0.97	0.863	0.888	0.786
NCI-H1703	0.438	0.318	0.369	0.32						0.361	0.436	0.349	0.385	0.303	0.664	0.653	0.647	0.616
NCI-H1792					0.843	0.803	0.556	0.759	0.755	0.674	0.669	0.542	0.616	0.622	0.986	0.86	0.816	0.682
NCI-H1793	0.69	0.511	0.386	0.415	0.448	0.355	0.291	0.358	0.27	0.8	0.737	0.595	0.711	0.613				
NCI-H2342	0.922	1.09	0.961	0.981	0.436	0.341	0.325	0.288	0.331									
SW 900	0.876	0.78	0.783	0.92	0.544	0.625	0.645	0.855	0.434									
